Results on 13 compounds are retold here after EPA's ToxValDB 9.5.

One data set relates to Canidae. Conditions: oral, M/F, Dog Other; for LEL / NOEL: chronic, diet.
For the next data set, the system named is Mus musculus. The following applies: chronic, M/F; for LEL / NOEL: diet.
The test system of data set [1] is Rattus norvegicus. Conditions: oral, gavage.
Data set [2] concerns Rattus norvegicus. The following applies: repeat dose other; oral.
In data set [3] the test system is Rattus norvegicus. The following applies: subchronic; oral; M/F; mortality and body weight loss.
The subject of data set [4] is Rattus norvegicus. Conditions: subchronic, duration: 13 weeks.
Data set [5] deals with Rattus norvegicus. Conditions: M/F.
Data set [6] deals with Rattus norvegicus. Conditions: Hershberger; duration: 10 days; oral; gavage; Sprague-Dawley; active + Negative + Antiandrogenic + anti-androgenic + Delayed PPS and decreased AST wt at 375 / bw decreased 6-7% / increased liver wt in….
The mark [7] stands for this setting: duration: 2 years, Increased mean blood sugar concentration + slight hypothermia.
Where [8] appears, read: short-term, duration: 28 days, M, Sprague-Dawley, Clinical Observation: Respiratory rate decrease, Incomplete eyelid opening SalivationSpontaneous locomotion decrease + Body Weight Changes: ….
Where [9] appears, read: short-term, duration: 28 days, M, Sprague-Dawley, Clinical Observation: Spontaneous locomotion decrease, Respiratory rate decrease, Salivation + Body Weight Changes: decrease + Food ….
The mark [10] stands for this setting: inhalation, B6C3F1, suppurative inflammation of the nose.
Setting [11] is: duration: 2 years, reduced body weight gain.
The mark [12] stands for this setting: duration: 6 months, liver and thyroid effects.
The mark [13] stands for this setting: duration: 1 years, increased serum cholesterol, alkaline phosphatase, and relative liver and kidney weight, and decreased alanine transaminase and adrenal ….
[14] abbreviates: duration: 20 months, oral, increased absolute liver weight and nonneoplastic lesions.
[15] abbreviates: duration: 2 years, oral, centrilobular hepatocytomegaly (males).

The structures appear in SMILES notation. Where “and” joins values, the source holds several entries; their conditions need not be identical. Equal entries are not always repeated. A value given as a limit tells only on which side of the number the result lay.

For the compound `Cc1ccc(N=CN(C)C=Nc2ccc(C)cc2C)c(C)c1` [Amitraz], in the data set with Canidae (setting [7]), the LEL was found to be 1 mg/kg-day and the NOEL was 0.25 mg/kg-day.
`ClC(Cl)Br` [Bromodichloromethane] displayed an LOAEL in the data set on Mus musculus (oral, gavage, renal cytomegaly) of 25 mg/kg-day. For the same compound, the NOAEL in the data set with Rattus norvegicus [1] (setting [8]) and in the data set on Rattus norvegicus [1] (setting [9]) was 40 mg/kg-day in each case. For the same compound, the NOEL in the data set with Rattus norvegicus [1] (setting [8]) was below 40 mg/kg-day; in the data set on Rattus norvegicus [1] (setting [9]) it was below 40 mg/kg-day; in the data set on Rattus norvegicus [1] (subchronic, duration: 13 weeks, M/F, Fischer 344, Deaths + Body Weight Changes: decrease + Histopathology: Liver/centrilobular-Degeneration Liver/bile duct -Hyperplasia Liver-Enlargement, …) it was 38 mg/kg-day.
In the data set on Rattus norvegicus [2], `[O]=[Cr][O][Cr]=[O]` [Chromium(III) oxide] displayed an NOAEL of 2740 mg/kg-day.
The compound `Clc1ccc2oc3c(Cl)c(Cl)c(Cl)c(Cl)c3c2c1` [Dibenzofuran, 1,2,3,4,8-pentachloro-] displayed an NOAEL in the data set with Rattus norvegicus [2] of 0.048 mg/kg-day.
As for `O=C(O)C(Cl)Cl` [Dichloroacetic acid], the LOAEL with Canidae (subchronic, lesions in testes, cerebrum, cerebellum, and liver) was 12.5 mg/kg-day.
In the data set on Rattus norvegicus [2], `CCOC(C)=O` [Ethyl acetate] came in with an LOAEL of 360 mg/kg-day and an NOAEL of 90 mg/kg-day. In the data set with Rattus norvegicus [3], this compound returned an LOAEL of 3600 mg/kg-day and an NOEL of 900 mg/kg-day.
Turning to `ClC1=C(Cl)C(Cl)(Cl)C(Cl)=C1Cl` [Hexachlorocyclopentadiene], the NOAEL in the data set with Rattus norvegicus [4] (inhalation, intermittent, Nasal cavity: Squamous metaplasia) was 1.67 mg/m3; in the data set on Rattus norvegicus [4] (oral, Forestomach: Lesions), 7.1 mg/kg-day; in the data set on Rattus norvegicus [5] (chronic, duration: 14 weeks, inhalation, Sprague-Dawley, respiratory), 2.23 mg/m3; in the data set with Rattus norvegicus [5] (subchronic, duration: 13 weeks, oral, gavage, Fischer 344, renal), 19 mg/kg-day; in the data set on Mus musculus (setting [10]), 0.56 mg/m3. For the same compound, the LOAEL with Rattus norvegicus [5] (chronic, duration: 2 years, inhalation, Fischer 344, respiratory) was 0.112 mg/m3; in the data set on Mus musculus (setting [10]) it was 2.23 mg/m3.
Regarding `C=CCOC(Cn1ccnc1)c1ccc(Cl)cc1Cl` (stereo unspecified) [Imazalil], in the data set on Canidae (setting [11]), the LEL came to 5 mg/kg-day and the NOEL was determined as 1.25 mg/kg-day.
In the data set on Canidae (setting [12]), `CNc1cnn(-c2cccc(C(F)(F)F)c2)c(=O)c1Cl` [Norflurazon] showed an LEL of 10.2 mg/kg-day and an NOEL of 3.75 mg/kg-day. For the same compound, in the data set with Rattus norvegicus [6], the LOEL is 375 mg/kg-day and 1000 mg/kg-day; the NOEL was 185 mg/kg-day and 300 mg/kg-day.
With `CCCN(CCC)c1c([N+](=O)[O-])cc(S(N)(=O)=O)cc1[N+](=O)[O-]` [Oryzalin], in the data set with Canidae (setting [13]), the LEL came out at 50 mg/kg-day and the NOEL is 5 mg/kg-day.
For `CCOc1cc(Oc2ccc(C(F)(F)F)cc2Cl)ccc1[N+](=O)[O-]` [Oxyfluorfen], in the data set on Mus musculus (setting [14]), the LEL amounted to 3 mg/kg-day and the NOEL was 0.3 mg/kg-day.
In the data set with Rattus norvegicus [2], `O=[Se](=O)([O-])[O-]` [Selenate] gave an LOAEL of 0.33 mg/kg-day and an NOAEL of 0.2 mg/kg-day.
As to `COc1nc(C)nc(NC(=O)NS(=O)(=O)c2ccccc2OCCCl)n1` [Triasulfuron], in the data set on Mus musculus (setting [15]), the LEL worked out at 129 mg/kg-day and the NOEL was 1.2 mg/kg-day.

A word on the LOAEL: it is the lowest dose or exposure tested at which an adverse effect was seen. The NOAEL is the highest tested level that showed no adverse finding.
